Results from ChEMBL document CHEMBL1132015, “Selective inactivation of protein tyrosine phosphatase PTP1B by sulfone analogue of naphthoquinone” (Bioorg Med Chem Lett, 1999).

Assay: Inhibitory constant was determined against Protein tyrosine phosphatase (PTP) using the Kitz and Wilson method

SMILES: O=C1C(CCl)=CS(=O)(=O)c2ccccc21
- Ki: 3.5 µM
